Where two headings read alike, the source gives them in different places.
Legend:
HSP90 [1] = assay: HSP90 gene expression in rat brain tissue, qRT-PCR; assay type: in vivo; conditions: 12 mg/kg oral
Protocol: […] Expression of selected HSPs was detected using qRT-PCR with expression of the GAPDH gene used as the control. To represent the effect of CNS-102 on HSP expression, mean fold change is calculated as CNS-102 treated/PBS treated for each HSP at each time point.

HSP70 [2] = conditions: rat eyes, single dose 12 mg/kg
HSP70 [3] = assay: HSP70 induction in rat hippocampus with or without kainic acid injection (immunohistochemistry, western blot); assay type: in vivo; conditions: KA stereotactically injected in hippocampus; localized in the injection site
Protocol: Stereotactic injections of Kainic acid into rat hippocampus tissues led to increased damages in neurons. […] Under this condition, neurons and HSP70 expression was stained by immunohistochemistry techniques. HSP70 expression was induced in a very specific area only that KA was injected. The induced area was not stained by HSP70 antibody when KA was not injected, but CNS-102 was dosed.
HSP70 induction by dosing CNS-102 in the absence of the KA injection was limited in western blot experiments using hippocampus lysates. 120% or 130% of HSP70 expression could be seen by comparing those of vehicle dosing control experiments.

HSP70 [4] = assay: HSP70 expression in cortex and hippocampus in vivo, western blot; set-up: species or system rat; HSP70 Expression (average, western blot): scale not given here; conditions: for delta HSP70 expression, CNS-102 minus PBS: 12 mg/kg oral
Protocol: The time course of protein expression, as measured by western blot for HSP70, was determined in triplicate for hippocampus, and cortex tissue samples taken from each of 5 animals per group at each of four time points (24, 48, 72, and 96 h) after treatment with either PBS or 12 mg/kg CNS-102, administered orally. The average expression for each treatment group is calculated at each time point for each tissue using PROC MIXED in SAS and are tabulated, along with the difference (delta) between treatment averages and a p-value comparing the difference to zero, below.

[5] = tested on: Rat primary motor neurons; assay: Axon extension of rat primary motor neurons; assay type: cell-based; conditions: 72 hrs; read-out: EC50 (cells extending axons)
Protocol: Rat primary motor neurons were isolated from embryonic spinal cords in accordance with the method of Henderson et al.; J Cohen and G P Wilkin (ed.), Neural Cell Culture, (1995) p69-81 which is herein incorporated by reference in its entirety. Briefly, spinal cords were dissected from day 15 embryo (E15) and incubated in a trypsin solution, and followed by DNase treatment to release spinal cord cells from tissue fragments. The cell suspension was centrifuged to remove tissue fragments. Then motor neurons were enriched by density gradient centrifugation.
Motor neurons were cultured in serum-free neurobasal medium containing insulin, forskolin, 3-isobutyl-1-methylxanthine, neurotrophic factors, Bovine serum albumin, selenium, transferrin, putrescine, progesterone and B27 supplement in tissue culture plate coated with poly-ornithine and laminin.
Rat primary motor neurons were prepared and cultured as described in Example 13. […] The cells extending axons were counted in five different fields for each treatment after 72 hrs. Percentage of positive cells relative to total cells in the same magnification field was calculated and the results were expressed as means+/−standard deviations, n=5.

[6] = tested on: Mouse Neuro2A neuroblastoma cells; assay: Neuro2A cells with neurites after GGTI-298 (Example 16); assay type: cell-based; conditions: 10 μM
Protocol: Mouse Neuro2A neuroblastoma cells were cultured in DMEM supplemented with 10% FBS for 24 hrs. […] Then differentiation was induced by retinoic acid in DMEM supplemented with 2% FBS. The cell culture was incubated with a Geranylgeranyl Transferase inhibitor, GGTI-298. After 24 hrs incubation, cells with neurites were counted.

SOD1 mice = assay: CatWalk gait analysis in SOD1 mice; assay type: in vivo, mouse; set-up: Hind stride length, Mean/average: unit not given beside the values
Text: Prior to onset, there was little to no difference between the transgenic and wildtype groups. Transgenic animals tended to rely more on front paws for movement as weakness and paralysis in the hind paws progressed. This began to show around timepoint P100, coinciding with the expected onset of disease. This impairment was seen through changes in front and hind paw step cycle, print area, mean intensity, and base of support.

Sprague-Dawley rats = assay: Kainic acid induced neurodegeneration and seizure behaviors in rats (Examples 20, 21); assay type: in vivo, rat; conditions: oral
Text: Seizure behaviors were observed and scored (Ref. R. J. Racine, Modification of seizure activity by electrical stimulation: II. Motor seizure, Electroencephalogr. Clin. […] Modifications were made for the methods). Brain tissues of rats were sectioned on histology slides, and neurons in hippocampus tissues were stained by Nissl. Neurons in dentate gyrus tissues damaged by Kainic acid were quantified. The Memantine composition used in comparison refers to a commercially available NMDA receptor […]. […] Seizure behaviors were observed and scored (Ref. R. J. Racine, Modification of seizure activity by electrical stimulation: II. Motor seizure, Electroencephalogr. Clin. […] Modifications were made for the methods). Brain tissues of rats were sectioned on histology slides, and neurons in hippocampus tissues were stained by Nissl. Neurons damaged by Kainic acid and behavior scores were quantified.

HSP90 [7] = assay: HSP90 expression in neuro2A cells, western blot; assay type: cell-based, mouse; conditions: 48 hours, GGTI-298
Protocol: Differentiation was induced and cells incubated with geranylgeranyl transferase I inhibitor, GGTI-298. Cells were harvested and lysates were prepared and analyzed by western blot for HSP70 and HSP90. Western signals in the absence of the compounds were normalized as 1.00.

In the case of `CC(=O)CC/C=C(\C)CC/C=C(\C)CC/C=C(\C)CCC=C(C)C` [CNS-102], the “HSP90 mean fold change (CNS-102 treated/PBS treated), mean ± SD” value (HSP90 [1]; 24 h) is reported as 1.32 ± 0.95, the “HSP90 mean fold change (CNS-102 treated/PBS treated), mean ± SD” value (HSP90 [1]; 48 h) is reported as 1.16 ± 0.55 and the “HSP90 mean fold change (CNS-102 treated/PBS treated), mean ± SD” value (HSP90 [1]; 72 h) is reported as 2.59 ± 1.27. For the same molecule, the “HSP90 mean fold change (CNS-102 treated/PBS treated), mean ± SD” value (HSP90 [1]; 96 h) was 1.68 ± 0.72, the “HSP70 Expression (Fold change vs vehicle control), mean ± SD” value (HSP70 [2]; 24 hr) was 1.47 ± 0.36 and the “HSP70 Expression (Fold change vs vehicle control), mean ± SD” value (HSP70 [2]; 48 hr) was 1.33 ± 0.10. The “HSP70 Expression (Fold change vs vehicle control), mean ± SD” value (HSP70 [2]; 72 hr) was 1.40 ± 0.11, the HSP70 induction (HSP70 [3]) was “strong induction of HSP70” and the “HSP70 Expression (average, western blot)” value (HSP70 [4]; Cortex, 24 hours after 12 mg/kg oral, PBS −0.256) was −0.016. For the same molecule, the “delta HSP70 expression, CNS-102 minus PBS” value (HSP70 [4]; Cortex, 24 hours) was 0.24, the “HSP70 Expression (average, western blot)” value (HSP70 [4]; Cortex, 48 hours after 12 mg/kg oral, PBS −0.56) was −0.45 and the “delta HSP70 expression, CNS-102 minus PBS” value (HSP70 [4]; Cortex, 48 hours) was 0.11. The “HSP70 Expression (average, western blot)” value (HSP70 [4]; Cortex, 72 hours after 12 mg/kg oral, PBS 0.01) was 0.14, the “delta HSP70 expression, CNS-102 minus PBS” value (HSP70 [4]; Cortex, 72 hours) was 0.13 and the “HSP70 Expression (average, western blot)” value (HSP70 [4]; Cortex, 96 hours after 12 mg/kg oral, PBS −0.15) was 0.04. For the same molecule, the “delta HSP70 expression, CNS-102 minus PBS” value (HSP70 [4]; Cortex, 96 hours) was 0.19, the “HSP70 Expression (average, western blot)” value (HSP70 [4]; Hippocampus, 24 hours after 12 mg/kg oral, PBS −0.072) was −0.159 and the “delta HSP70 expression, CNS-102 minus PBS” value (HSP70 [4]; Hippocampus, 24 hours) was −0.088. For the same molecule, the “HSP70 Expression (average, western blot)” value (HSP70 [4]; Hippocampus, 48 hours after 12 mg/kg oral, PBS −0.18) was 0.02, the “delta HSP70 expression, CNS-102 minus PBS” value (HSP70 [4]; Hippocampus, 48 hours) was 0.2 and the “HSP70 Expression (average, western blot)” value (HSP70 [4]; Hippocampus, 72 hours after 12 mg/kg oral, PBS −0.2) was −0.06. The “delta HSP70 expression, CNS-102 minus PBS” value (HSP70 [4]; Hippocampus, 72 hours) was 0.14, the “HSP70 Expression (average, western blot)” value (HSP70 [4]; Hippocampus, 96 hours after 12 mg/kg oral, PBS −0.49) was −0.32 and the “delta HSP70 expression, CNS-102 minus PBS” value (HSP70 [4]; Hippocampus, 96 hours) was 0.17. The EC50 [5] was 0.92 nM, the “Mean of cell numbers (cells with neurites)” value [6] was 0.738 Arbitrary units and the “Run Duration, CNS-102 - vehicle difference of averages” value (SOD1 mice; P120) was −1.68. For the same molecule, the “Stride Length, CNS-102 - vehicle difference of averages” value (SOD1 mice; P120) was 1.46, the “Swing Speed, CNS-102 - vehicle difference of averages” value (SOD1 mice; P120) was 14.58 and the “Run Duration, Mean/average” value (SOD1 mice; P-42, SOD1/Vehicle 1.484746201) was 1.685. For the same molecule, the “Hind stride length, Mean/average” value (SOD1 mice; P-42, SOD1/Vehicle 6.359471205) was 6.082, the “Swing speed, Mean/average” value (SOD1 mice; P-42, SOD1/Vehicle 45.8515272) was 41.18 and the “Run Duration, Mean/average” value (SOD1 mice; P-124 (+/−) 3, SOD1/Vehicle 3.461605345) was 1.976. For the same molecule, the “Hind stride length, Mean/average” value (SOD1 mice; P-124 (+/−) 3, SOD1/Vehicle 3.607909383) was 5.476, the “Swing speed, Mean/average” value (SOD1 mice; P-124 (+/−) 3, SOD1/Vehicle 23.93413455) was 35.63 and the “Mean of Hippocampus CA3 Neurons Damaged” value (Sprague-Dawley rats; 3 mg/Kg rat) was 10.25 Arbitrary units. The “Mean of Seizure behaviors scores” value (Sprague-Dawley rats; 3 mg/Kg rat) was 27.5, the “Mean of Hippocampus CA3 Neurons Damaged” value (Sprague-Dawley rats; 12 mg/Kg rat) was 10.16 Arbitrary units and the “Mean of Seizure behaviors scores” value (Sprague-Dawley rats; 12 mg/Kg rat) was 22.5. For the same molecule, the “Mean of Hippocampus CA3 Neurons Damaged” value (Sprague-Dawley rats; 25 mg/Kg rat) was 1.97 Arbitrary units, the “Mean of Seizure behaviors scores” value (Sprague-Dawley rats; 25 mg/Kg rat) was 25.75 and the Seizure behaviors scores (Sprague-Dawley rats; Kainic acid, vehicle 34) was 18.8. For the same molecule, the “HSP90 western signal (absence of compounds = 1.00)” value (shortened to “HSP90 western signal”) (HSP90 [7]; 100 nM) was 3.29, the “HSP90 western signal” value (HSP90 [7]; 1 μM) was 1.74 and the “HSP90 western signal” value (HSP90 [7]; 10 μM) was 1.21.

Reference: patent publication US20150025077A1 (COYOTE PHARMACEUTICALS, INC., priority 2012, published 2015)
